The test system of series [1] is Staphylococcus aureus. The series can be described thus: Antibacterial activity against methicillin-resistant Staphylococcus aureus ATCC 33592 in peritoneal dialysis fluid at 10 ug/mL administered as bolus dose 2 hrs after infection measured after 24 hrs by time-kill study. Type of series: functional, organism-based.
For series [2], the system named is Staphylococcus aureus. The series can be described thus: Antibacterial activity against methicillin-resistant Staphylococcus aureus ATCC 33592 in peritoneal dialysis fluid at 50 ug/mL administered as bolus dose 2 hrs after infection measured after 24 hrs by time-kill study. Type of series: functional, organism-based.
Series [3] has as its system Staphylococcus aureus. The series can be described thus: Antibacterial activity against methicillin-susceptible Staphylococcus aureus ATCC 29213 in peritoneal dialysis fluid at 10 ug/mL administered as bolus dose 2 hrs after infection measured after 24 hrs by time-kill study. It is filed as functional, organism-based.
A short description of series [4]: Protein binding in mouse plasma at 0.1 to 100 ug/mL by equilibrium dialysis. It is filed as ADME, cell-free. The conditions noted are these: read-out: PB (converted).
The subject of series [5] is Staphylococcus aureus. The series can be described thus: Antibacterial activity against methicillin-susceptible Staphylococcus aureus ATCC 29213 in peritoneal dialysis fluid at 50 ug/mL administered as bolus dose 2 hrs after infection measured after 24 hrs by time-kill study. It is filed as functional, organism-based.
Series [6] concerns Staphylococcus aureus. The series can be described thus: Antibacterial activity against methicillin-susceptible Staphylococcus aureus ATCC 29213 in peritoneal dialysis fluid administered as bolus dose 2 hrs after infection measured after 24 hrs by broth dilution method. Type of series: functional. On the technique in general: Dilution methods test growth across graded concentrations, often in twofold steps.

Series [7] has as its system Staphylococcus aureus. The series can be described thus: Antibacterial activity against methicillin-resistant Staphylococcus aureus ATCC 33592 in peritoneal dialysis fluid administered as bolus dose 2 hrs after infection measured after 24 hrs by broth dilution method. Type of series: functional.

The values below come from ChEMBL document CHEMBL1151436, “In vitro evaluation of the activities of telavancin, cefazolin, and vancomycin against methicillin-susceptible and methicillin-resistant Staphylococcus aureus in peritoneal dialysate” (Antimicrob Agents Chemother, 2007).

In brackets after ≈: the same amount, converted by molar mass. Activity calls are given as the source filed them.

As for `CCCCCCCCCCNCCN[C@@]1(C)C[C@H](O[C@H]2[C@H](Oc3c4cc5cc3Oc3ccc(cc3Cl)[C@@H](O)[C@@H](NC(=O)[C@@H](CC(C)C)NC)C(=O)N[C@@H](CC(N)=O)C(=O)N[C@H]5C(=O)N[C@H]3C(=O)N[C@H](C(=O)N[C@H](C(=O)O)c5cc(O)c(CNCP(=O)(O)O)c(O)c5-c5cc3ccc5O)[C@H](O)c3ccc(c(Cl)c3)O4)O[C@H](CO)[C@@H](O)[C@@H]2O)O[C@@H](C)[C@H]1O` [TELAVANCIN], the outcome with Staphylococcus aureus [1], in the series on Staphylococcus aureus [2], with Staphylococcus aureus [3] and in the series on Staphylococcus aureus [5] was Active. Also, in series [4], the fraction unbound was 0.05. In addition, the minimal inhibitory concentration (MIC) (as a rule, the smallest concentration in the dilution series that meets the test's criterion for growth inhibition) in the series on Staphylococcus aureus [6] worked out at 0.25 µg/mL (≈ 0.142 µM); in the series with Staphylococcus aureus [7], 0.125 µg/mL (≈ 0.0712 µM).
Consider `Cc1nnc(SCC2=C(C(=O)O)N3C(=O)[C@@H](NC(=O)Cn4cnnn4)[C@H]3SC2)s1` [CEFAZOLIN], for which the results for the MIC in the series on Staphylococcus aureus [6] and with Staphylococcus aureus [7] were 0.5 µg/mL (≈ 1.1 µM) and greater than 16 µg/mL, respectively.
